Each structure is given as a SMILES string. Bounds are passed on as bounds.

Results on four molecules are retold here after patent US12594276B2, “Inhibitors of human immunodeficiency virus replication” (ViiV Healthcare UK (No.5) Limited, priority 2024, dated 2026).

Data set [1] is described as follows: Compound cytotoxicity, XTT-based colorimetric assay. In kind it is cell-based. The conditions noted are these: human; uninfected MT2 cells, day 4, XTT; read-out: CC50. The procedure, abridged: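 Cells seeded as for the antiviral assay but left uninfected (MT2). Compound exposure continued to day 4. XTT reagent added and colour read. CC50 calculated.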
On the technique in general: Tetrazolium assays rely on reduction of a dye to a coloured formazan, in cell work by metabolically active cells.

Data set [2] deals with recombinant NL4-3 virus (nef section replaced with Renilla luciferase gene) in MT-2 cells. The experiment in a line: HIV cell culture assay (antiviral activity, luciferase readout). In kind it is cell-based. The conditions noted are these: Renilla, NL43, MT-2 cells infected for 4-5 days with recombinant NL4-3 Renilla luciferase virus. The procedure, abridged:
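The reporter virus was produced by transfecting 293T cells with the NL4-3 nef/Renilla luciferase proviral clone. MT-2 cells were infected for 4–5 days with serial compound dilutions present. Luciferase was read with a live-cell substrate, and EC50 came from the exponential median-effect equation.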

For the molecule `CS(=O)(=O)Nc1nn(CCN2CCC(F)CC2)c2c(-n3c([C@H](Cc4cc(F)cc(F)c4)NC(=O)Cn4nc(C(F)F)c5c4C(F)(F)[C@@H]4C[C@H]54)nc4nc(C5CCC(F)(F)CC5)ccc4c3=O)ccc(Cl)c12` (atropisomer, axis not shown; (P)) [Example 166, N-[(1S)-1-[(3P)-3-{4-chloro-1-[2-(4-fluoropiperidin-1-yl)ethyl]-3-methanesulfonamido-1H-indazol-7-yl}-7-(4,4-difluorocyclohexyl)-4-oxo-3H,4H-pyrido[2,3-d]pyrimidin-2-yl]-2-(3,5-difluorophenyl)ethyl]-2-[(2S,4R)-9-(difluoromethyl)-5,5-difluoro-7,8-diazatricyclo[4.3.0.0^2,^4]nona-1(6),8-dien-7-yl]acetamide], the CC50 (usually the concentration giving 50% cytotoxicity) at 4 days in data set [1] is greater than 50 nM. In addition, the EC50 (commonly the concentration at which the effect is half-maximal) in data set [2] worked out at 0.019 nM.

In the case of `CS(=O)(=O)Nc1nn(CCN2CCN(S(C)(=O)=O)CC2)c2c(-n3c([C@H](Cc4cc(F)cc(F)c4)NC(=O)Cn4nc(C5CC5)c5c4C[C@@H]4C[C@H]54)nc4nc(C5CCC(F)(F)CC5)ccc4c3=O)ccc(Cl)c12` (atropisomer, axis not shown; (P)) [Example 382, N-[(1S)-1-[(3P)-3-{4-chloro-3-methanesulfonamido-1-[2-(4-methanesulfonylpiperazin-1-yl)ethyl]-1H-indazol-7-yl}-7-(4,4-difluorocyclohexyl)-4-oxo-3H,4H-pyrido[2,3-d]pyrimidin-2-yl]-2-(3,5-difluorophenyl)ethyl]-2-[(2S,4S)-9-cyclopropyl-7,8-diazatricyclo[4.3.0.0^2,^4]nona-1(6),8-dien-7-yl]acetamide], the CC50 at 4 days in data set [1] is greater than 20 nM. Besides, the EC50 in data set [2] is 0.037 nM.

`Cc1cc(C2CCC(F)(F)CC2)nc2nc([C@H](Cc3cc(F)cc(F)c3)NC(=O)Cn3nc(C(F)F)c4c3C(F)(F)[C@@H]3C[C@H]43)n(-c3ccc(Cl)c4c(NS(C)(=O)=O)nn([C@H](C)CN5CC(C)(C)OC(C)(C)C5)c34)c(=O)c12` (atropisomer, axis not shown; (P)) [Example 733, N-[(1S)-1-[(3P)-3-{4-chloro-3-methanesulfonamido-1-[(2R)-1-(2,2,6,6-tetramethylmorpholin-4-yl)propan-2-yl]-1H-indazol-7-yl}-7-(4,4-difluorocyclohexyl)-5-methyl-4-oxo-3H,4H-pyrido[2,3-d]pyrimidin-2-yl]-2-(3,5-difluorophenyl)ethyl]-2-[(2S,4R)-9-(difluoromethyl)-5,5-difluoro-7,8-diazatricyclo[4.3.0.0^2,^4]nona-1(6),8-dien-7-yl]acetamide]: the cytotoxic concentration (CC50) at 4 days in data set [1] was greater than 20 nM. Also, the EC50 in data set [2] worked out at 0.037 nM.

As for `CS(=O)(=O)Nc1nn(CCN2CCCCC2)c2c(-n3c([C@H](Cc4cc(F)cc(F)c4)NC(=O)Cn4nc(C(F)F)c5c4C(F)(F)[C@@H]4C[C@H]54)nc4nc(C5CCC(F)(F)CC5)ccc4c3=O)ccc(Cl)c12` (atropisomer, axis not shown; (P)) [Example 165, N-[(1S)-1-[(3P)-3-{4-chloro-3-methanesulfonamido-1-[2-(piperidin-1-yl)ethyl]-1H-indazol-7-yl}-7-(4,4-difluorocyclohexyl)-4-oxo-3H,4H-pyrido[2,3-d]pyrimidin-2-yl]-2-(3,5-difluorophenyl)ethyl]-2-[(2S,4R)-9-(difluoromethyl)-5,5-difluoro-7,8-diazatricyclo[4.3.0.0^2,^4]nona-1(6),8-dien-7-yl]acetamide], the CC50 at 4 days in data set [1] is greater than 50 nM. In addition, in data set [2], the EC50 amounted to 0.031 nM.
